The source of these data is article PMC5667507, “A novel ^18F-labelled high affinity agent for PET imaging of the translocator protein” (Chemical Science, 2015).

Data set [1] addresses TSPO. Set-up: method as in PMID 20045646. The settings on record: printed in Fig. 2; cited from earlier work.
Data set [2] addresses T1, human serum albumin (HSA) (Homo sapiens, UniProt P02768).
T1 construct: purchased ChromTech HSA 5 µm (3.0 × 50 mm) column
Put plainly: Human serum albumin (HSA) chromatography for %PPB. As to conditions: human serum albumin (HSA) coated HPLC column, read-out: %PPB (percentage of plasma protein binding) (converted). Type of data set: in vitro ADME.

The conditions of data set [3]: used for HSA column calibration; ref literature (SI ref 3); cited from earlier work.
Data set [4] can be described thus: Stability testing in phosphate buffered saline at 37 °C (HPLC). The settings on record: for Purity of Compound (stability testing): 1:1 PBS/acetonitrile, 37 °C. The class given is physicochemical. On the procedure: The key physicochemical parameters of AB5186 6, permeability (P m), membrane partition coefficient (K m) and percentage of plasma protein binding (%PPB) were determined by high-performance liquid chromatography (HPLC) methods (Table 1).[23] […] As AB5186 6 contains a fluoroalkyl group, a potential alkylating agent, the stability of this compound was examined in simulated physiological conditions. […] The combination of a relatively strong C–F bond and the presence of bulky di-ortho-substituents impart a good level of stability.
3-(Fluoromethyl)-4-phenylquinoline-2-N-diethylcarboxamide (6) (2 mg, […]) was dissolved in a 1:1 mixture of […] phosphate buffered saline and acetonitrile (2 mL) and incubated at 37 ° C. 5 µL of the solution was injected onto the HPLC system (conditions described as below in section 7) at various time points (0, 1, 2, 4, 6 and 24 h). The purity of the compound at these time points was detemined by measuring the area under the peaks of the resultant UV

Data set [5] concerns the target T2, TSPO (Rattus norvegicus, UniProt P16257).
T2 construct: Whole brains from male Sprague-Dawley rats (200–300 g) were obtained; from tissue; host or cells: whole brain of male Sprague-Dawley rats, washed membrane homogenate
Put plainly: Competition binding assay, displacement of [3H]-PK11195 in rat brain homogenates. The settings on record: displacement of [3H]-PK11195, rat brain homogenates; mean ± SD of three independent experiments. The text has this:
Competition Binding Assays
(6 pictures or pasted objects on this page, not shown here)

T1 sequence (P02768 25-609): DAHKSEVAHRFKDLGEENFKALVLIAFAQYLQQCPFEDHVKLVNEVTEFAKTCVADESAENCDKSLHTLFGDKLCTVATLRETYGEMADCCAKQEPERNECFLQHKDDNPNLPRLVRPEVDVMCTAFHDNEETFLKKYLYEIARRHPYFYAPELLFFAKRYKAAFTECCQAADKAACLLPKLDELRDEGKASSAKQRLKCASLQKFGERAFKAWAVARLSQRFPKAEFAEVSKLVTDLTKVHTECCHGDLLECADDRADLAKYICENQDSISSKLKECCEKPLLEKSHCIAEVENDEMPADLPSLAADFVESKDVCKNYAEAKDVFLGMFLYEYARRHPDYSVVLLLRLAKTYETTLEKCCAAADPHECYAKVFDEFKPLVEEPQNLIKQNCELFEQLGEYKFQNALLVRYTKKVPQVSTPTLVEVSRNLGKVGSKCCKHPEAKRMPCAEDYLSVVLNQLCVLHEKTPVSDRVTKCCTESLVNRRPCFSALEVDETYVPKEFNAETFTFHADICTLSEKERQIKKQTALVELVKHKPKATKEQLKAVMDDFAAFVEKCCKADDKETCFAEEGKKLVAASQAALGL

As usually defined, the Ki is the dissociation constant of the complex between target and ligand, obtained from inhibition or displacement. Take “3-iodomethylquinoline-2-carboxamide [compound 4]”: the inhibitory constant (Ki) on TSPO [1] is 12 nM.

Turning to “4-(2-iodophenyl)quinoline-2-carboxamide [compound 5]”, the Ki at TSPO [1] was 5.01 nM.

In the case of `CCC(C)N(C)C(=O)c1cc2ccccc2c(-c2ccccc2Cl)n1` (stereo not drawn) [PK11195 1, reference compound], the fraction unbound at 0.5 mg/mL in data set [2] is 0.085.

Turning to `O=C1CN=C(c2ccccn2)c2cc(Br)ccc2N1` [bromazepam], in data set [3], the “%PPB (literature value of calibration standard)” value (“%PPB” for short) was 60.0%.

Regarding `CNC(=C[N+](=O)[O-])NCCSCc1csc(CN(C)C)n1` [nizatidine], in data set [3], the “%PPB” value is 35.0%.

Regarding `CCCC1O[C@@H]2C[C@H]3[C@@H]4CCC5=CC(=O)C=C[C@]5(C)[C@H]4[C@@H](O)C[C@]3(C)[C@]2(C(=O)CO)O1` (stereo partly drawn) [budesonide], in data set [3], the “%PPB” value is reported as 88.0%.

On to `CCN(CC)C(=O)c1nc2ccccc2c(-c2ccccc2)c1CF` [AB5186 6, 3-(Fluoromethyl)-4-phenylquinoline-2-N-diethylcarboxamide], for which, in data set [2], the fraction unbound at 0.5 mg/mL is 0.103. The “Purity of Compound (stability testing)” value in data set [4] (time 0 h) stood at 98.81%; in data set [4] (time 1 h), 98.75%; in data set [4] (time 2 h), 98.76%; in data set [4] (time 4 h), 98.80%; in data set [4] (time 6 h), 98.78%; in data set [4] (time 24 h) it was 91.94%. For the same compound, the decomposition in data set [4] (phosphate buffered saline pH 7.4, 37 °C, after 6 hours) was 0.03%. The compound further displayed a Ki on TSPO [5] of 2.8 ± 0.8 nM.
